Structures can show the parent of a compound that is named as a salt.
The compounds below were run on Plasmodium falciparum (assay: In vitro anti-malarial activity against Plasmodium falciparum, IC50 assay / [3H]-Hypoxanthine incorporation assay). Conditions: Erythrocyte; Plasmodium falciparum strains in parasitized red blood cells, [3H]-hypoxanthine incorporation, 48 hours at 37°C.
Format: cell-based
Description: The compounds of this invention may be tested in one of several biological assays to determine the concentration of compound which is required to have a given pharmacological effect. In vitro anti-malarial activity against Plasmodium falciparum. IC50 assay / [^3H]-Hypoxanthine assay
The culture medium comprised RPMI 1640 with 25mM HEPES, sodium bicarbonate and glutamine (GIBCO™ cat. ref.: 52400), supplemented with 10% of pooled human sera AB (Irvine Scientific, cat. ref.: 5009) and HT supplement (0.15 mM hypoxanthine and 24 µM thymidine), (GIBCO™ cat. ref.: 41065). Human sera were decomplemented 30 min. at 56°C, aliquoted and stored frozen at -20°C until use in this culture medium.
This culture medium ("complete medium") was usually prepared fresh just before use and pre-warmed to 37°C.
Red blood cells O+ stock suspensions were prepared from whole blood bags coming from incomplete blood donation, provided by the Spanish Red Cross (<25 days after sampling). This "whole blood" was aliquoted and stored at 4°C.
To prepare red blood cells for the assay, the whole blood was centrifuged and washed 3 times with RPMI without serum. The upper phase, containing white blood cells was removed. The washed red blood cells were kept as a 50 % suspension in complete medium. The prepared cells were stored at 4°C and were employed in the assay at any time up to 4 days after preparation.
Test compounds were dissolved at 2 mg/ml in 100% DMSO on the day of the assay. If necessary, complete dissolution was achieved by gentle heating (the mixture was heated at a temperature <37°C) and sonication (sonication bath).
For IC50 determinations, 10 serial 2-fold dilutions were prepared in complete medium in the presence of a constant amount of DMSO. Any obvious signs of insolubility of the stock solutions in 100% DMSO or precipitation when these solutions were diluted in assay media, were recorded.
Plasmodium falciparum strains were maintained in complete medium at an hematocrit of 5% in continuous culture using a method adapted from that published by Trager and Jensen(1) and Traeger(2).
The parasitemia was calculated by counting the percentage of parasitized erythrocytes by optical microscopy. Thin films of blood were made every day from each culture flask, fixed with methanol and stained for 10 min. in Giemsa (Merck, cat. ref.: 1.09204) at 10 % in buffered water pH 7.2. The glass slides were observed and counted with an optical microscope (Nikon, Eclipse E200) equipped with a 100 X immersion oil objective.
The culture was maintained at an hematocrit of 5%, with a daily change of medium and was diluted when parasitemia had reached about 5%.
[^3H] Hypoxanthine incorporation assay was conducted using a method adapted from Desjardins et al. (3). The assays were performed in 96 wells flat bottom microplates. • 1. Serial dilutions of the test compounds (50µl of a 5X solution / well) were deposited in duplicate. Compounds of the invention were tested in this assay. Chloroquine and Atovaquone were used as control compounds for each assay. • 2. […] [^3H]-Hypoxanthine (Amersham Biosciences, cat. ref.: TRK74) was added extemporaneously to the inoculum suspension at a concentration of 1 µCi/ml (equating to […]). 200 µl of the resulting suspension was distributed into each well (other than the control well H12 described below) leading to a final volume of 250 µl per well, at 2% of hematocrit and 0.5 % of parasitemia / well. • 4. […]

Compound	IC50
Cc1[nH]c(C)c(-c2ccc(C#CCN3CCC(c4ccccc4)CC3)cc2)c(=O)c1Cl [Example 10, 3-Chloro-2,6-dimethyl-5-{4-[3-(4-phenyl-1-piperidinyl)-1-propyn-1-yl]phenyl}-4(1H)-pyridinone]	< 0.125 µg/mL
Cc1[nH]c(C)c(-c2ccc(-c3ccc(CN4CCC(c5ccc(OC(F)(F)F)cc5)CC4)cc3)cc2)c(=O)c1Cl.Cl [Example 33, 3-Chloro-2,6-dimethyl-5-{4'-[(4-{4-[(trifluoromethyl)oxy]phenyl}-1-piperidinyl)methyl]-4-biphenylyl}-4(1H)-pyridinone hydrochloride]	< 0.125 µg/mL
CCCN(CC#Cc1ccc(-c2c(C)[nH]c(C)c(Cl)c2=O)cc1)Cc1ccc(OC(F)(F)F)cc1 [Example 20, 3-Chloro-2,6-dimethyl-5-(4-{3-[propyl({4-[(trifluoromethyl)oxy]phenyl}methyl)amino]-1-propyn-1-yl}phenyl)-4(1H)-pyridinone]	< 0.125 µg/mL
Cc1[nH]c(C)c(-c2ccc(CN(C)Cc3ccc(OC(F)(F)F)cc3)cc2)c(=O)c1Cl.Cl [Example 23, 3-Chloro-2,6-dimethyl-5-(4-{[methyl({4-[(trifluoromethyl)oxy]phenyl}methyl)amino]-methyl}phenyl)-4(1H)-pyridinone hydrochloride]	< 0.125 µg/mL
Cc1[nH]c(C)c(-c2ccc(C#CCN3CCC(c4ccc(OC(F)(F)F)cc4)CC3)cc2)c(=O)c1Cl.O=C(O)C(F)(F)F [Example 22, 3-Chloro-2,6-dimethyl-5-{4-[3-(4-{4-[(trifluoromethyl)oxy]phenyl}-1-piperidinyl)-1-propyn-1-yl]phenyl}-4(1H)-pyridinone trifluoroacetate]	< 0.125 µg/mL
Cc1[nH]c(C)c(-c2ccc(C#CCN(C)Cc3ccc(C(F)(F)F)cc3)cc2)c(=O)c1Cl [Example 2, 3-Chloro-2,6-dimethyl-5-{4-[3-(methyl{[4-(trifluoromethyl)phenyl]methyl}amino)-1-propyn-1-yl]phenyl}-4(1H)-pyridinone]	< 0.125 µg/mL
Cc1[nH]c(C)c(-c2cccc(C#CCN3CCC(c4ccc(OC(F)(F)F)cc4)CC3)c2)c(=O)c1Cl.O=C(O)C(F)(F)F [Example 30, 3-Chloro-2,6-dimethyl-5-{3-[3-(4-{4-[(trifluoromethyl)oxy]phenyl}-1-piperidinyl)-1-propyn-1-yl]phenyl}-4(1H)-pyridinone trifluoroacetate]	< 0.125 µg/mL
Cc1[nH]c(C)c(-c2cccc(CN(C)Cc3ccc(OC(F)(F)F)cc3)c2)c(=O)c1Cl.Cl [Example 25, 3-Chloro-2,6-dimethyl-5-(3-{[methyl({4-[(trifluoromethyl)oxy]phenyl}methyl)amino]-methyl}phenyl)-4(1H)-pyridinone hydrochloride]	< 0.125 µg/mL

Results, then the compound that gave them:

IC50	Compound
< 0.125 µg/mL	Cc1[nH]c(C)c(-c2ccc(C#CCN(C)Cc3nccs3)cc2)c(=O)c1Cl.Cl [Example 43, 3-Chloro-2,6-dimethyl-5-(4-{3-[methyl(1,3-thiazol-2-ylmethyl)amino]-1-propyn-1-yl}phenyl)-4(1H)-pyridinone hydrochloride]
< 0.125 µg/mL	Cc1[nH]c(C)c(-c2ccc(C#CCN(C)Cc3ccsc3)cc2)c(=O)c1Cl.Cl [Example 45, 3-Chloro-2,6-dimethyl-5-(4-{3-[methyl(3-thienylmethyl)amino]-1-propyn-1-yl}phenyl)-4(1H)-pyridinone hydrochloride]
< 0.125 µg/mL	Cc1[nH]c(C)c(-c2ccc(-c3ccc(CN4CCC(C(F)(F)F)CC4)cc3)cc2)c(=O)c1Cl.Cl [Example 57, 3-chloro-2,6-dimethyl-5-(4'-{[4-(trifluoromethyl) -1-piperidinyl]methyl}-4-biphenylyl)-4(1H)-pyridinone hydrochloride]
< 0.125 µg/mL	Cc1[nH]c(C)c(-c2ccc(-c3ccc(CN(C)Cc4ccc(OC(F)(F)F)cc4)cc3)cc2)c(=O)c1Cl.Cl [Example 35, 3-Chloro-2,6-dimethyl-5-(4'-{[methyl({4-[(trifluoromethyl)oxy]phenyl}methyl)amino]methyl}-4-biphenylyl)-4(1H)-pyridinone hydrochloride]
< 0.125 µg/mL	Cc1[nH]c(C)c(-c2ccc(C(F)(F)CN3CCC(C(F)(F)F)CC3)nc2)c(=O)c1Cl [Example 67, 5-chloro-6'-{1,1-difluoro-2-[4-(trifluoromethyl)-1-piperidinyl]ethyl}-2,6-dimethyl-3,3'-bipyridin-4(1H)-one]
< 0.125 µg/mL	Cc1[nH]c(CO)c(-c2ccc(-c3ccc(CN4CCC(c5ccc(OC(F)(F)F)cc5)CC4)cc3)cc2)c(=O)c1Cl.Cl [Example 62, 3-chloro-6-(hydroxymethyl)-2-methyl-5-{4'-[(4-{4-[(trifluoromethyl)oxy]phenyl}-1-piperidinyl)methyl]-4-biphenylyl}-4(1H)-pyridinone hydrochloride]
< 0.125 µg/mL	Cc1[nH]c(C)c(-c2ccc(C#CCN(C)Cc3ccc(Cl)cc3Cl)cc2)c(=O)c1Cl.Cl [Example 46, 3-Chloro-5-(4-{3-[[(2,4-dichlorophenyl)methyl](methyl)amino]-1-propyn-1-yl}phenyl)-2 ,6-dimethyl-4(1H)-pyridinone hydrochloride]
< 0.125 µg/mL	Cc1[nH]c(C)c(-c2ccc(C#CCN(C)CCC(C)(C)C)cc2)c(=O)c1Cl.Cl [Example 48, 3-Chloro-5-(4-{3-[(3,3-dimethylbutyl)(methyl)amino]-1-propyn-1-yl}phenyl)-2 ,6-dimethyl-4(1H)-pyridinone hydrochloride]
< 0.125 µg/mL	Cc1[nH]c(C)c(-c2ccc(C#CCN(C)Cc3ccco3)cc2)c(=O)c1Cl.Cl [Example 41, 3-Ch loro-5-(4-{3-[(2-furanylmethyl)(methyl)amino]-1-propyn-1-yl}phenyl)-2,6-dimethyl-4(1H)-pyridinone hydrochloride]
< 0.125 µg/mL	Cc1[nH]c(C)c(-c2ccc(C#CCN(C)Cc3ccc(F)cc3F)cc2)c(=O)c1Cl.Cl [Example 40, 3-Chloro-5-(4-{3-[[(2,4-difluorophenyl)methyl](methyl)amino]-1-propyn-1-yl}phenyl)-2,6-dimethyl-4(1H)-pyridinone hydrochloride]
< 0.125 µg/mL	Cc1[nH]c(C)c(-c2ccc(-c3ccc(CN4CCC(c5ccc(OC(F)(F)F)cc5)CC4)cc3)nc2)c(=O)c1Cl.Cl [Example 64, 5-chloro-2,6-dimethyl-6'-{4-[(4-{4-[(trifluoromethyl)oxy]phenyl}-1-piperidinyl)methyl]phenyl}-3,3'-bipyridin-4(1H)-one hydrochloride]
< 0.125 µg/mL	Cc1[nH]c(CO)c(-c2ccc(-c3ccc(CN4CCC(c5ccc(OC(F)(F)F)cc5)CC4)cc3)cc2)c(=O)c1Cl [Example 61, 3-chloro-6-(hydroxymethyl)-2-methyl-5-{4'-[(4-{4-[(trifluoromethyl)oxy]phenyl}-1-piperidinyl)methyl]-4-biphenylyl}-4(1H)-pyridinone]
< 0.125 µg/mL	Cc1[nH]c(C)c(-c2ccc(C#CCN(C)CCC(F)(F)F)cc2)c(=O)c1Cl.Cl [Example 49, 3-Chloro-2,6-dimethyl-5-(4-{3-[methyl(3,3,3-trifluoropropyl)amino]-1-propyn-1-yl}phenyl)-4(1H)-pyridinone hydrochloride]

Same assay, conditions: Plasmodium falciparum, Erythrocyte

Compound	IC50
Cc1[nH]c(C)c(-c2ccc(CCCN3CCC(c4ccc(OC(F)(F)F)cc4)CC3)cc2)c(=O)c1Cl [Example 52, 3-Chloro-2,6-dimethyl-5-{4-[3-(4-{4-[(trifluoromethyl)oxy]phenyl}-1-piperidinyl)propyl]phenyl}-4(1H)-pvridinone hydrochloride]	< 0.125 µg/mL

— patent publication EP2246329A1, “4(1H)-pyridinone derivatives and their use as antimalaria agents” (Glaxo Group Limited, priority 2009, dated 2010)
